The text below walks through data of US20040248887A1, “Inhibitors of cathepsin S” (IRM LLC, priority 2003, published 2004).

pKi: −log10 of the molar value. Read-outs that look alike come from different tables or passages of the source.

What all share (assay type): biochemical
In one assay the target is Cathepsin S (Homo sapiens, UniProt P25774). The experiment in a line: Cathepsin S inhibition, fluorogenic peptide substrate kinetic assay. The following applies: Cathepsin S inhibition constant, pH5.5, read-out: Ki Cat. S. In short, it runs like this: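 Ki values derive from apparent constants fitted to progress curves, corrected for competition with substrate via [S] and Km. Kinetics were monitored at 380 nm excitation/450 nm emission, after substrate addition (Ac-HPVK-ACC, 50 μM final) to start the reaction.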

Another assay addresses Cathepsin L (Homo sapiens, UniProt P07711). The experiment in a line: Cathepsin L inhibition, fluorogenic peptide substrate kinetic assay. Conditions: Table III; Cathepsin L inhibition constant, pH5.5; read-out: Ki Cat. L. The procedure:
(§1) Kinetic measurements are performed in a total reaction volume of 30 μl in 384-well microtiter plates. […] The reactions are initiated by adding the substrate, acetyl-histidine-lysine-phenylalanine-lysine-amino carbamoyl coumarin, to a final concentration of 20 μM. The rate of substrate hydrolysis is measured by monitoring the increase in fluorescence at an excitation wavelength of 380 nm and an emission wavelength of 450 nm that results from cleavage of the aniline bond in the substrate by the enzyme. The apparent inhibition constants for the compounds are determined from the enzyme progress curves (Kuzmic, P., K. C. Elrod, et al., Anal Biochem 2000, 286(1), 45-50) and are then used to calculate the inhibition constants for competitive inhibitors.

For a further assay, the target named is Cathepsin B (Homo sapiens, UniProt P07858). The experiment in a line: Cathepsin B inhibition, fluorogenic peptide substrate kinetic assay. Conditions: Table III; Cathepsin B inhibition constant, pH5.5; read-out: Ki Cat. B. The procedure: The optimal substrate for cathepsin B, acetyl-histidine-proline-valine-lysine-amino carbamoyl coumarin, was identified from screening a combinatorial library of fluorogenic peptide substrates (Harris, J. L., B. J. Backes, et al., Proc Natl Acad Sci USA 2000, 97(14), 7754-9). Kinetic measurements are performed in a total reaction volume of 30 μl in 384-well microtiter plates. Cathepsin B, at a final concentration of 1.5 nM (active site), is incubated with the compounds at twelve varying concentrations in a buffer containing 100 mM NaAc (pH5.5), 1 mM EDTA, 100 mM NaCl, 0.01% Brij-35 for 20 minutes at room temperature. Control reactions in the absence of inhibitor are performed in replicates of 24. The reactions are initiated by adding the substrate, acetyl-histidine-proline-valine-lysine-amino carbamoyl coumarin, to a final concentration of 10 μM. The rate of substrate hydrolysis is measured by monitoring the increase in fluorescence at an excitation wavelength of 380 nm and an emission wavelength of 450 nm that results from cleavage of the aniline bond in the substrate by the enzyme. The apparent inhibition constants for the compounds are determined from the enzyme progress curves (Kuzmie, P., K. C. Elrod, et al., Anal Biochem 2000, 286(1), 45-50) and are then used to calculate the inhibition constants for competitive inhibitors.

Another assay addresses T1, Cathepsin K (Homo sapiens, UniProt P43235).
T1 sequence (P43235 115-329): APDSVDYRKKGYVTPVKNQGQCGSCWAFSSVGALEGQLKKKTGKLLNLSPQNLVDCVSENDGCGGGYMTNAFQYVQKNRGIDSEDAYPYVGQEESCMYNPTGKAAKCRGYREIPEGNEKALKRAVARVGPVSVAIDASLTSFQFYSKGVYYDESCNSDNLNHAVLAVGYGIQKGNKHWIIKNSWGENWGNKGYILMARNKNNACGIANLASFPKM
Nature of the assay: Cathepsin K inhibition, fluorogenic peptide substrate kinetic assay. The following applies: Table III; Cathepsin K inhibition constant, pH5.5; read-out: Ki Cat. K. As for the experimental part: as §1, with “The optimal substrate for cathepsin K, acetyl-lysine-histidine-proline-lysine-amino carbamoyl coumarin, was identified from screening a combinatorial library of fluorogenic peptide substrates (Harris, J. L., B. J. Backes, et al., Proc Natl Acad Sci U S A 2000, 97(14), 7754-9). Kinetic” for “Kinetic”, “substrate, acetyl-lysine-histidine-proline-lysine-amino” for “substrate, acetyl-histidine-lysine-phenylalanine-lysine-amino”, “of 40” for “of 20”

Broadly, the pKi is −log10 of the Ki, conventionally taken in molar units.

Chain of Cathepsin S (P25774 115-331, species assumed): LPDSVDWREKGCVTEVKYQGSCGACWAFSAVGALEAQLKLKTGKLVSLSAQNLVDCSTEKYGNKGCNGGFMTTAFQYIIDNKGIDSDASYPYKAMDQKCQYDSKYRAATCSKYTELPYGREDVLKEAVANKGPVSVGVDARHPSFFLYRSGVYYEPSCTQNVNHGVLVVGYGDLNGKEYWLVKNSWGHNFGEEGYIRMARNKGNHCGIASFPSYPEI
Chain of Cathepsin L (P07711 114-333, species assumed): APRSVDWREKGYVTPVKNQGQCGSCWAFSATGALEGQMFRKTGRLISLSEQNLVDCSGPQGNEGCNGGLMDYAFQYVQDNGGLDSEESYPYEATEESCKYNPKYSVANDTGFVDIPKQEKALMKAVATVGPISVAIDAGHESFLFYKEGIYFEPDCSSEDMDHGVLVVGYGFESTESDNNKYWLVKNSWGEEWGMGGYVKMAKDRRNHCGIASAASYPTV

As for `C[C@@H](CNc1ccccc1C(N)=O)NC(=O)[C@H](CC1CCCCC1)NC(=O)c1ccc(-c2cccc(F)c2)o1` [Compound 121, 5-(3-Fluoro-phenyl)-furan-2-carboxylic acid {1-(S)-[2-(2-carbamoyl-phenylamino)-1-(S)-methyl-ethylcarbamoyl]-2-cyclohexyl-ethyl}-amide], the pKi is greater than 6.00 at Cathepsin S (Table II); greater than 6.00 at Cathepsin S (Table III); greater than 5.00 on Cathepsin L; greater than 5.00 on Cathepsin B; greater than 5.00 on Cathepsin K.
With `CC(C(=O)N[C@@H](CC1CCCCC1)C(=O)NCCN1CCc2cc(F)ccc21)c1ccc(O)cc1` (stereo partly drawn) [Compound 101, N-{2-cyclohexyl-1-(S)-[2-(5-fluoro-2,3-dihydro-indol-1-yl)-ethylcarbamoyl]-ethyl}-2-(4-hydroxy-phenyl)-propionamide], the pKi at Cathepsin S (Table II) was greater than 7.00; at Cathepsin S (Table III) it was greater than 7.00; on Cathepsin L it was greater than 5.00; at Cathepsin B, less than 5.00; on Cathepsin K it was less than 5.00.
On to `COc1cccc(C(=O)N[C@@H](CCC2CCCCC2)C(=O)N[C@H](CN2CCc3cc(F)ccc32)c2ccccc2)c1` [Compound 51, (S,S)-N-{3-Cyclohexyl-1-[2-(5-fluoro-2,3-dihydro-indol-1-yl)-1-phenyl-ethylcarbamoyl]-propyl}-3-methoxy-benzamide], for which the pKi at Cathepsin B is less than 5.00.
For the compound `C[C@@H](CNc1ccc(OC(F)(F)F)cc1)NC(=O)[C@H](CC1CCCC1)NC(=O)O[C@@H]1CCOC1` [Compound 191, (S,S)-{2-Cyclopentyl-1-[1-methyl-2-(4-trifluoromethoxy-phenylamino)-ethylcarbamoyl]-ethyl}-carbamic acid tetrahydrofuran-3-(R)-yl ester], the pKi at Cathepsin S (Table II) is greater than 7.00; at Cathepsin S (Table III), greater than 7.00; at Cathepsin L, less than 5.00; on Cathepsin B, less than 5.00; at Cathepsin K, greater than 5.00.
`Cc1cccc(C(=O)N[C@@H](CC2CCCC2)C(=O)NCCN2CCc3cc(F)ccc32)c1` [Compound 201, (S)-N-{2-Cyclopentyl-1-[2-(5-fluoro-2,3-dihydro-indol-1-yl)-ethylcarbamoyl]-ethyl}-3-methyl-benzamide]: the pKi on Cathepsin S (Table II) is greater than 7.00; on Cathepsin S (Table III), greater than 7.00; at Cathepsin L, greater than 6.00; on Cathepsin B, less than 5.00; at Cathepsin K it was greater than 5.00.
For `O=C(N[C@H](C(=O)N[C@@H](COCc1ccccc1)CN1CCc2cc(F)ccc21)c1ccc(Cl)cc1Cl)c1ccc(F)c(F)c1` [Compound 211, N-(S)-((3-(benzyloxy)-1-(5-fluoroindolin-1-yl)propan-2-(R)-ylcarbamoyl)(2,4-dichlorophenyl)methyl)-3,4-difluorobenzamide], the pKi is greater than 7.00 at Cathepsin S (Table II); greater than 7.00 at Cathepsin S (Table III); greater than 5.00 on Cathepsin L; less than 5.00 at Cathepsin B; less than 5.00 at Cathepsin K.
In the case of `COc1ccc(NCC(C)NC(=O)[C@H](CC(C)C)NC(=O)c2cccc(C)c2)cc1` (mixture of isomers) [Compound 21, N-{1-(S)-[2-(4-Methoxy-phenylamino)-1-methyl-ethylcarbamoyl]-3-methyl-butyl}-3-methyl-benzamide], at Cathepsin B, the pKi is less than 5.00.
With `Cc1nnc(-c2cccc(S(=O)(=O)N[C@@H](CC3CCCCC3)C(=O)NCCN3CCc4cc(F)ccc43)c2)o1` [Compound 233, (S)-3-Cyclohexyl-N-[2-(5-fluoro-2,3-dihydro-indol-1-yl)-ethyl]-2-[3-(5-methyl-[1,3,4]oxadiazol-2-yl)-benzenesulfonylamino]-propionamide], the pKi at Cathepsin S (Table II) was greater than 7.00.
For `O=C(NCCN1CCc2cc(F)ccc21)[C@H](CC1CCCCC1)NS(=O)(=O)c1ccc(Oc2ccccc2)cc1` [Compound 226, (S)-3-Cyclohexyl-N-[2-(5-fluoro-2,3-dihydro-indol-1-yl)-ethyl]-2-(4-phenoxy-benzenesulfonylamino)-propionamide], at Cathepsin S (Table II), the pKi is greater than 7.00.
Take `COc1ccc(S(=O)(=O)N2CCC(C(=O)N[C@@H](CC3CCCCC3)C(=O)NCCN3CCc4cc(F)ccc43)CC2)cc1` [Compound 57, 1-(4-Methoxy-benzenesulfonyl)-piperidine-4-carboxylic acid (S)-{2-cyclohexyl-1-[2-(5-fluoro-2,3-dihydro-indol-1-yl)-ethylcarbamoyl]-ethyl}-amide]: the pKi on Cathepsin S (Table II) is greater than 6.00.
Take `COc1cccc(C(=O)N[C@@H](CC(C)(C)C)C(=O)N[C@@H](COCc2ccccc2)CN2CCc3cc(F)ccc32)c1` [Compound 155, N-{1-(S)-[1-(R)-Benzyloxymethyl-2-(5-fluoro-2,3-dihydro-indol-1-yl)-ethylcarbamoyl]-3,3-dimethyl-butyl}-3-methoxy-benzamide]: the pKi on Cathepsin S (Table II) is greater than 7.00.
In the case of `Cc1cccc(C(=O)N[C@@H](Cc2ccccc2Cl)C(=O)NCCN2CCc3cc(F)ccc32)c1` [Compound 195, N-((S)-1-(2-(5-fluoroindolin-1-yl)ethylcarbamoyl)-2-(2-chlorophenyl)ethyl)-3-methylbenzamide], the pKi at Cathepsin S (Table II) is greater than 6.00.
As for `C[C@@H](CNc1ccc2c(c1)OCO2)NC(=O)[C@H](CC1CCCCC1)NC(=O)c1ccc(-c2cccc(F)c2)o1` [Compound 85, 5-(3-Fluoro-phenyl)-furan-2-carboxylic acid {1-(S)-[2-(benzo[1,3]dioxol-5-ylamino)-1-(S)-methyl-ethylcarbamoyl]-2-cyclohexyl-ethyl}-amide], the negative-log Ki (pKi) at Cathepsin S (Table II) is greater than 7.00.
With `C[C@@H](CNc1ccc(OC(F)(F)F)cc1)NC(=O)[C@H](CC1CCCCC1)NS(=O)(=O)c1cccc(OC(F)(F)F)c1` [Compound 182, (S,S)-3-Cyclohexyl-N-[1-methyl-2-(4-trifluoromethoxy-phenylamino)-ethyl]-2-(3-trifluoromethoxy-benzenesulfonylamino)-propionamide], the pKi on Cathepsin S (Table II) was greater than 7.00.
Turning to `C[C@@H](CNc1cc(F)cc(F)c1)NC(=O)[C@H](CC1CCCCC1)NC(=O)c1ccc(-c2cccc(F)c2)o1` [Compound 87, 5-(3-Fluoro-phenyl)-furan-2-carboxylic acid {2-cyclohexyl-1-(S)-[2-(3,5-difluoro-phenylamino)-1-(S)-methyl-ethylcarbamoyl]-ethyl}-amide], the pKi at Cathepsin S (Table II) is greater than 7.00.
Consider `O=C(N[C@@H](CC1CCCCC1)C(=O)NCCN1CCc2cc(F)ccc21)c1csc(-c2ccccc2)n1` [Compound 76, 2-Phenyl-thiazole-4-carboxylic acid (S)-{2-cyclohexyl-1-[2-(5-fluoro-2,3-dihydro-indol-1-yl)-ethylcarbamoyl]-ethyl}-amide], for which, on Cathepsin S (Table II), the pKi is greater than 7.00.
`O=C(N[C@@H](CC1CCCCC1)C(=O)NCCN1CCc2cc(F)ccc21)c1ccc(-c2cccc(C(F)(F)F)c2)o1` [Compound 2, 5-(3-Trifluoromethyl-phenyl)-furan-2-carboxylic acid (S)-{2-cyclohexyl-1-[2-(5-fluoro-2,3-dihydro-indol-1-yl)-ethylcarbamoyl]-ethyl}-amide]: the pKi at Cathepsin S (Table II) is greater than 7.00.
As for `C[C@@H](CNc1cccc(S(C)(=O)=O)c1)NC(=O)[C@H](CC(C)(C)C)NC(=O)c1ccc(-c2cccc(F)c2)o1` [Compound 130, 5-(3-Fluoro-phenyl)-furan-2-carboxylic acid {1-(S)-[2-(3-methanesulfonyl-phenylamino)-1-(S)-methyl-ethylcarbamoyl]-3,3-dimethyl-butyl}-amide], the pKi at Cathepsin S (Table II) was greater than 7.00.
